Laboratory results published in article PMC6105524 (Lipids, 2018).
Read-outs that look alike come from different tables or passages of the source.

Key:
[1] = Plasma unlabeled fatty acid concentrations; format: in vivo, human
[2] = format: in vivo, human; settings: for F (turnover of esterified n-3 HUFA in plasma): Jsyn / amount in plasma total lipids; for Time first detected in plasma: after beginning infusion; for Total esterified amount in plasma at 7 h: 7 h of infusion
[3] = compartmental modeling, humans; ref Pawlosky et al. 2001; cited from earlier work
[4] = ref Domenichiello et al. 2014, Domenichiello et al. 2016, Metherel et al. 2018, cited from earlier work
[5] = subject S01, unlabeled, mean of 17 time points, low linoleate diet
[6] = subject S02, unlabeled, mean of 17 time points, low linoleate diet
[7] = subject S01, 8 h iv infusion of d5-ALA-albumin 0.78 mg/kg BW/hr
[8] = subject S01, k1 x unesterified ALA 2.52 nmol/mL
[9] = subject S02, 8 h iv infusion of d5-ALA-albumin 0.78 mg/kg BW/hr
[10] = subject S02, k1 x unesterified ALA 4.74 nmol/mL

In the case of `CCCCCCCCCCCCCC(=O)O` [14:0], the “Fatty acid concentration in plasma total lipids (mean)” value (“Fatty acid concentration” for short) [1, 5] was 43.9 nmol/mL and the “Fatty acid concentration” value [1, 6] was 36.8 nmol/mL.
For `CCCCCCCCCCCCCCCC(=O)O` [16:0], the “Fatty acid concentration” value [1, 5] was 1265 nmol/mL and the “Fatty acid concentration” value [1, 6] was 1152 nmol/mL.
For `CCCCCC/C=C\CCCCCCCC(=O)O` [16:1n-7], the “Fatty acid concentration” value [1, 5] was 153 nmol/mL and the “Fatty acid concentration” value [1, 6] was 91.9 nmol/mL.
With `CCCCCCCCCCCCCCCCCC(=O)O` [18:0] the “Fatty acid concentration” value [1, 5] was 367 nmol/mL and the “Fatty acid concentration” value [1, 6] was 374 nmol/mL.
For `CCCCCC/C=C/CCCCCCCCCC(=O)O` [18:1n-7], the “Fatty acid concentration” value [1, 5] was 98.0 nmol/mL and the “Fatty acid concentration” value [1, 6] was 104 nmol/mL.
For `CCCCCCCC/C=C\CCCCCCCC(=O)O` [18:1n-9], the “Fatty acid concentration” value ([1]; in vivo) was 896 nmol/mL.
In the case of `CCCCC/C=C\C/C=C\C/C=C\CCCCC(=O)O` [18:3n-6], the “Fatty acid concentration” value [1, 5] was 15.3 nmol/mL and the “Fatty acid concentration” value [1, 6] was 12.3 nmol/mL.
For `CCCCCCCC/C=C\CCCCCCCCCC(=O)O` [20:1n-9], the “Fatty acid concentration” value [1, 5] was 7.8 nmol/mL and the “Fatty acid concentration” value [1, 6] was 9.3 nmol/mL.
In the case of `CCCCC/C=C\C/C=C\CCCCCCCCCC(=O)O` [20:2n-6], the “Fatty acid concentration” value [1, 5] was 8.6 nmol/mL and the “Fatty acid concentration” value [1, 6] was 13.6 nmol/mL.
In the case of `CCCCC/C=C\C/C=C\C/C=C\CCCCCCC(=O)O` [20:3n-6], the “Fatty acid concentration” value [1, 5] was 98.2 nmol/mL and the “Fatty acid concentration” value [1, 6] was 79.1 nmol/mL.
For `CCCCCCCCCCCCCCCCCCCCCC(=O)O` [22:0], the “Fatty acid concentration” value [1, 5] was 30.5 nmol/mL and the “Fatty acid concentration” value [1, 6] was 17.4 nmol/mL.
With `CCCCC/C=C\C/C=C\C/C=C\C/C=C\CCCCCC(=O)O` [22:4n-6] the “Fatty acid concentration” value [1, 5] was 9.6 nmol/mL and the “Fatty acid concentration” value [1, 6] was 8.5 nmol/mL.
For `CCCCC/C=C\C/C=C\C/C=C\C/C=C\C/C=C\CCC(=O)O` [22:5n-6], the “Fatty acid concentration” value [1, 5] was 16.8 nmol/mL and the “Fatty acid concentration” value [1, 6] was 8.0 nmol/mL.
For `CCCCCCCCCCCCCCCCCCCCCCCC(=O)O` [24:0], the “Fatty acid concentration” value [1, 5] was 21.5 nmol/mL and the “Fatty acid concentration” value [1, 6] was 15.2 nmol/mL.
In the case of `CCCCCCCC/C=C\CCCCCCCCCCCCCC(=O)O` [24:1n-9], the “Fatty acid concentration” value [1, 5] was 48.1 nmol/mL and the “Fatty acid concentration” value [1, 6] was 21.8 nmol/mL.
For `CC/C=C\C/C=C\C/C=C\CCCCCCCC(=O)O` [ALA, α-linolenic acid], the “Plasma concentration of unesterified unlabeled ALA” value ([1]; subject S01) was 2.52 µM, the “Fatty acid concentration” value [1, 5] was 24.3 nmol/mL and the “Plasma concentration of unesterified unlabeled ALA” value ([1]; subject S02) was 4.74 µM. The “Fatty acid concentration” value [1, 6] was 33.5 nmol/mL.
For `CC/C=C\C/C=C\C/C=C\C/C=C\C/C=C\C/C=C\CCC(=O)O` [DHA, Docosahexaenoic acid], the “Smax (maximal first derivative of plasma total amount time-course of newly synthesized d5-n-3 HUFA)” value ([2]; subject S01) was 0.67 nmol/min, the “k1 (synthesis-secretion coefficient)” value ([2]; subject S01) was 0.39 mL/min and the “Time at Smax” value [2, 7] was 109 min. For the same compound, the “F (turnover of esterified n-3 HUFA in plasma)” value ([2]; subject S01) was 2.6e-06 min⁻¹, the “Jsyn (whole body synthesis-secretion rate from circulating unesterified 18:3n-3)” value [2, 8] was 0.99 nmol/min and the “Smax (maximal first derivative of plasma total amount time-course of newly synthesized d5-n-3 HUFA)” value ([2]; subject S02) was 0.21 nmol/min. The “k1 (synthesis-secretion coefficient)” value ([2]; subject S02) was 0.12 mL/min, the “Time at Smax” value [2, 9] was 125 min and the “F (turnover of esterified n-3 HUFA in plasma)” value ([2]; subject S02) was 3.7e-06 min⁻¹. The “Jsyn (whole body synthesis-secretion rate from circulating unesterified 18:3n-3)” value [2, 10] was 0.56 nmol/min, the “Rate of mass flow from immediate precursor” value (“Rate of mass flow” for short) [3] was 0.464 µmol/day and the “Whole body synthesis-secretion rate of DHA from circulating ALA” value ([4]; rats consuming a high ALA diet) was 1.5 µmol/day. The “Whole body synthesis-secretion rate of DHA from circulating ALA” value ([4]; rats consuming a low ALA containing diet) was 0.045 µmol/day.
In the case of `CC/C=C\C/C=C\C/C=C\C/C=C\C/C=C\CCCCCC(=O)O` [DPAn-3, docosapentaenoic acid], the “Smax (maximal first derivative of plasma total amount time-course of newly synthesized d5-n-3 HUFA)” value ([2]; subject S01) was 2.43 nmol/min, the “k1 (synthesis-secretion coefficient)” value ([2]; subject S01) was 1.44 mL/min and the “Time at Smax” value [2, 7] was 94 min. The “F (turnover of esterified n-3 HUFA in plasma)” value ([2]; subject S01) was 8.8e-05 min⁻¹, the “Jsyn (whole body synthesis-secretion rate from circulating unesterified 18:3n-3)” value [2, 8] was 3.62 nmol/min and the “Smax (maximal first derivative of plasma total amount time-course of newly synthesized d5-n-3 HUFA)” value ([2]; subject S02) was 4.14 nmol/min. The “k1 (synthesis-secretion coefficient)” value ([2]; subject S02) was 2.32 mL/min, the “Time at Smax” value [2, 9] was 156 min and the “F (turnover of esterified n-3 HUFA in plasma)” value ([2]; subject S02) was 0.00019 min⁻¹. For the same compound, the “Jsyn (whole body synthesis-secretion rate from circulating unesterified 18:3n-3)” value [2, 10] was 11.0 nmol/min and the “Rate of mass flow” value [3] was 0.075 µmol/day.
With `CC/C=C\C/C=C\C/C=C\C/C=C\C/C=C\CCCC(=O)O` [EPA, eicosapentaenoic acid] the “Smax (maximal first derivative of plasma total amount time-course of newly synthesized d5-n-3 HUFA)” value ([2]; subject S01) was 3.23 nmol/min, the “k1 (synthesis-secretion coefficient)” value ([2]; subject S01) was 1.91 mL/min and the “Time at Smax” value [2, 7] was 190 min. The “F (turnover of esterified n-3 HUFA in plasma)” value ([2]; subject S01) was 7.7e-05 min⁻¹, the “Jsyn (whole body synthesis-secretion rate from circulating unesterified 18:3n-3)” value [2, 8] was 4.81 nmol/min and the “Smax (maximal first derivative of plasma total amount time-course of newly synthesized d5-n-3 HUFA)” value ([2]; subject S02) was 2.29 nmol/min. The “k1 (synthesis-secretion coefficient)” value ([2]; subject S02) was 1.29 mL/min, the “Time at Smax” value [2, 9] was 215 min and the “F (turnover of esterified n-3 HUFA in plasma)” value ([2]; subject S02) was 0.00015 min⁻¹. The “Jsyn (whole body synthesis-secretion rate from circulating unesterified 18:3n-3)” value [2, 10] was 6.09 nmol/min and the “Rate of mass flow” value [3] was 0.021 µmol/day.
For `CC/C=C\C/C=C\C/C=C\C/C=C\C/C=C\CCCCCCCC(=O)O` [TPAn-3, tetracosapentaenoic acid], the “Jsyn (whole-body synthesis-secretion rate)” value ([2]; both subjects) was 0.5 to 0.6 nmol/min, the “Smax (maximal first derivative of plasma total amount time-course of newly synthesized d5-n-3 HUFA)” value ([2]; subject S01) was 0.39 nmol/min and the “k1 (synthesis-secretion coefficient)” value ([2]; subject S01) was 0.23 mL/min. For the same compound, the “Time at Smax” value [2, 7] was 98 min, the “F (turnover of esterified n-3 HUFA in plasma)” value ([2]; subject S01) was 7.4e-05 min⁻¹ and the “Jsyn (whole body synthesis-secretion rate from circulating unesterified 18:3n-3)” value [2, 8] was 0.58 nmol/min. The “Smax (maximal first derivative of plasma total amount time-course of newly synthesized d5-n-3 HUFA)” value ([2]; subject S02) was 0.22 nmol/min, the “k1 (synthesis-secretion coefficient)” value ([2]; subject S02) was 0.12 mL/min and the “Time at Smax” value [2, 9] was 150 min. For the same compound, the “F (turnover of esterified n-3 HUFA in plasma)” value ([2]; subject S02) was 0.0001 min⁻¹, the “Jsyn (whole body synthesis-secretion rate from circulating unesterified 18:3n-3)” value [2, 10] was 0.58 nmol/min and the “Fatty acid concentration” value [1, 5] was 2.1 nmol/mL. The “Fatty acid concentration” value [1, 6] was 2.0 nmol/mL.
In the case of `[2H]C([2H])([2H])C([2H])([2H])/C=C\C/C=C\C/C=C\CCCCCCCC(=O)O` [d5-18:3n-3, d5–17, 17, 18, 18, 18-18:3n-3, reference compound], the “Plasma concentration of unesterified d5-18:3n-3 at 6 h” value ([2]; in vivo) was 4.37 µM and the “Time to reach steady-state plasma concentration of infused unesterified tracer” value ([2]; in vivo) was “about 10 min”.
In the case of `[2H]C([2H])([2H])C([2H])([2H])/C=C\C/C=C\C/C=C\C/C=C\C/C=C\CCCC(=O)O` [d5-20:5n-3], the “Time at Smax” value ([2]; both subjects) was “about 200 min”, the “Time to achieve steady-state plasma concentration of esterified d5-HUFA” value (“Time … of esterified d5-HUFA” below) ([2]; both subjects) was “about 5 hr” and the “Smax (maximal first derivative of plasma total amount time-course of newly synthesized d5-n-3 HUFA)” value ([2]; subject S01) was 3.23 nmol/min. The “Smax (maximal first derivative of plasma total amount time-course of newly synthesized d5-n-3 HUFA)” value ([2]; subject S02) was 2.29 nmol/min.
In the case of `[2H]C([2H])([2H])C([2H])([2H])/C=C\C/C=C\C/C=C\C/C=C\C/C=C\CCCCCC(=O)O` [d5-22:5n-3], the “Time first detected in plasma” value [2] was 40 min, the “Time for which plasma amount increased before leveling off” value ([2]; both subjects) was “up to 4 h” and the “Time … of esterified d5-HUFA” value ([2]; both subjects) was “about 5 hr”. The “Smax (maximal first derivative of plasma total amount time-course of newly synthesized d5-n-3 HUFA)” value ([2]; subject S01) was 2.43 nmol/min, the “Total esterified amount in plasma at 7 h” value ([2]; subject S01) was 580 nmol and the “Time at Smax” value [2, 7] was 94 min. The “Smax (maximal first derivative of plasma total amount time-course of newly synthesized d5-n-3 HUFA)” value ([2]; subject S02) was 4.14 nmol/min, the “Total esterified amount in plasma at 7 h” value ([2]; subject S02) was 920 nmol and the “Time at Smax” value [2, 9] was 156 min.
For `[2H]C([2H])([2H])C([2H])([2H])/C=C\C/C=C\C/C=C\C/C=C\C/C=C\C/C=C\CCC(=O)O` [d5-22:6n-3], the “Time first detected in plasma” value [2] was 40 min, the “Time for which plasma amount increased before leveling off” value ([2]; both subjects) was “up to 4 h” and the “Time … of esterified d5-HUFA” value ([2]; both subjects) was “about 5 hr”. For the same compound, the “Smax (maximal first derivative of plasma total amount time-course of newly synthesized d5-n-3 HUFA)” value ([2]; subject S01) was 0.67 nmol/min, the “Total esterified amount in plasma at 7 h” value ([2]; subject S01) was 148 nmol and the “Smax (maximal first derivative of plasma total amount time-course of newly synthesized d5-n-3 HUFA)” value ([2]; subject S02) was 0.21 nmol/min. The “Total esterified amount in plasma at 7 h” value ([2]; subject S02) was 44 nmol.
In the case of tetracosahexaenoic acid [THA], the “Jsyn (whole-body synthesis-secretion rate)” value ([2]; both subjects) was 0.5 to 0.6 nmol/min, the “Smax (maximal first derivative of plasma total amount time-course of newly synthesized d5-n-3 HUFA)” value ([2]; subject S01) was 0.41 nmol/min and the “k1 (synthesis-secretion coefficient)” value ([2]; subject S01) was 0.24 mL/min. For the same compound, the “Time at Smax” value [2, 7] was 102 min, the “F (turnover of esterified n-3 HUFA in plasma)” value ([2]; subject S01) was 5.8e-05 min⁻¹ and the “Jsyn (whole body synthesis-secretion rate from circulating unesterified 18:3n-3)” value [2, 8] was 0.61 nmol/min. The “Smax (maximal first derivative of plasma total amount time-course of newly synthesized d5-n-3 HUFA)” value ([2]; subject S02) was 0.17 nmol/min, the “k1 (synthesis-secretion coefficient)” value ([2]; subject S02) was 0.10 mL/min and the “Time at Smax” value [2, 9] was 125 min. The “F (turnover of esterified n-3 HUFA in plasma)” value ([2]; subject S02) was 0.0001 min⁻¹, the “Jsyn (whole body synthesis-secretion rate from circulating unesterified 18:3n-3)” value [2, 10] was 0.46 nmol/min and the “Fatty acid concentration” value [1, 5] was 2.8 nmol/mL. The “Fatty acid concentration” value [1, 6] was 1.5 nmol/mL.
